Here are results for 35 compounds from patent US9737504B2, “Dihydroorotic and acid dehydrogenase inhibitor” (NAI INC., priority 2012, dated 2017).

The target of data set [1] is T1, human DHOD (Homo sapiens, UniProt Q02127). The data set can be described thus: Measurement of DHOD inhibitory activity (DCIP reduction, end point assay). It counts as biochemical. The settings on record: for inhibition at 0.2 µM: read-out: DHOD inhibition rate (%) 200 nM, 200 nM compound; for IC50: read-out: IC50 (nM) human DHOD (HsDHOD). The protocol:
The compounds of the present invention were used and measured for their DHOD inhibitory activity at concentrations of 200 nM and 1000 nM.
Reduction of DCIP was measured at 600 nm over 20 minutes.

Data set [2] has as its target T1, human DHOD. The description is as above. In kind it is biochemical. The settings on record: read-out: DHOD inhibition rate (%) 100 nM; 100 nM compound.

T1 sequence (Q02127 whole entry): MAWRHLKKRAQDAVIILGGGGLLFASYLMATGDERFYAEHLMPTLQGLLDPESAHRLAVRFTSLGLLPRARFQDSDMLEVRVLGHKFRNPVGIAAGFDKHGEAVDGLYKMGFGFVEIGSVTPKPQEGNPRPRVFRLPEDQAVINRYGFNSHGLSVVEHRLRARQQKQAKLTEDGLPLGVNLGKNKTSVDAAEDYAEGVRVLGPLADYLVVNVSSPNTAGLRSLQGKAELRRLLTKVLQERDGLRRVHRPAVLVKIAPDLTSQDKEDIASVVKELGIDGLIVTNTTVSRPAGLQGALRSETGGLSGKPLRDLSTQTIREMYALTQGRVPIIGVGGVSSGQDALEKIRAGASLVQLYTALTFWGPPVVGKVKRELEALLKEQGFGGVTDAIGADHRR

A word on the melting point: it is the temperature, or range, at which the solid turns liquid. `COC(=O)c1cc(Cl)c(O)c(C/C=C(\C)CCC=C(C)C)c1O` registered a melting point of 71 °C.
The inhibition is the change of the read-out against control, counted positive when it falls. Broadly, the IC50 is the concentration needed to halve the response being measured. With `C/C(=C\Cc1c(O)c(Cl)c(C)c(C=O)c1O)CC/C=C/COC(=O)C(C)(C)C` [07-11-116-4], at human DHOD [1], the inhibition at 0.2 µM is 57% and the IC50 came out at 146 ± 19 nM. The inhibition at 0.1 µM on human DHOD [2] is 87%.
`Cc1c(Cl)c(O)c(/C=C/CCCCCCOC(=O)C(C)C)c(O)c1C=O` [200-12-OCOiPr, (E)-8-(3-Chloro-5-formyl-2,6-dihydroxy-4-methylphenyl)-7-octenyl isobutylate] came in with a melting point of 73 °C. Further, on human DHOD [1], the inhibition at 0.2 µM turned out to be 51% and the IC50 was 326 ± 41 nM. The inhibition at 0.1 µM at human DHOD [2] was determined as 85%.
For the compound `Cc1c(Cl)c(O)c(/C=C/CCCCCCOC(=O)C(C)(C)C)c(O)c1C=O` [200-12-OPiv, (E)-8-(3-Chloro-5-formyl-2,6-dihydroxy-4-methylphenyl)-7-octenyl pivalate], the melting point is 57 to 58 °C.
The same measure, in the same setting: in the case of `CCC(=O)OCCCCCCC/C=C/c1c(O)c(Cl)c(C)c(C=O)c1O` [200-13-OCOEt, (E)-9-(3-Chloro-5-formyl-2,6-dihydroxy-4-methylphenyl)-8-nonenyl propionate] it was 72 to 73 °C.
`Cc1c(Cl)c(O)c(/C=C/CCCCCCCOC(=O)C(C)(C)C)c(O)c1C=O` [200-13-OPiv, (E)-9-(3-Chloro-5-formyl-2,6-dihydroxy-4-methylphenyl)-8-nonenyl pivalate] registered a melting point of 69 to 70 °C.
The same measure, in the same setting: next, `Cc1c(Cl)c(O)c(CCCCCCCC(=O)O)c(O)c1C=O` [215-9-COOH, 8-(3-Chloro-5-formyl-2,6-dihydroxy-4-methylphenyl)octanoic acid]: 149 to 150 °C; `Cc1c(Cl)c(O)c(CCCCCCCCO)c(O)c1C=O` [215-9-OH, 5-Chloro-2,4-dihydroxy-3-(8-hydroxyoctyl)-6-methylbenzaldehyde]: 129 to 130 °C.
As to `Cc1c(Cl)c(O)c(CCCCCCCOC(=O)C(C)(C)C)c(O)c1C=O` [215-11-OPiv, 7-(3-Chloro-5-formyl-2,6-dihydroxy-4-methylphenyl)heptyl pivalate], the melting point was in the range of 63 to 64 °C.
Still for that read-out and setting: next, `COC(=O)CCCCCCCCCc1c(O)c(Cl)c(C)c(C=O)c1O` [215-12-COOMe, Methyl 10-(3-chloro-5-formyl-2,6-dihydroxy-4-methylphenyl)decanate]: 87 to 88 °C.
`CCC(=O)OCCCCCCCCc1c(O)c(Cl)c(C)c(C=O)c1O` [215-12-OCOEt, 8-(3-Chloro-5-formyl-2,6-dihydroxy-4-methylphenyl)octyl propionate] came in with a melting point of 63 to 64 °C.
Turning to `Cc1c(Cl)c(O)c(CCCCCCCCOC(=O)C(C)(C)C)c(O)c1C=O` [215-12-OPiv, 8-(3-Chloro-5-formyl-2,6-dihydroxy-4-methylphenyl)octyl pivalate], the melting point is 70 to 71 °C.
As for `Cc1c(Cl)c(O)c(CCCCCCCCCCCC(=O)O)c(O)c1C=O` [215-13-COOH, 12-(3-Chloro-5-formyl-2,6-dihydroxy-4-methylphenyl)dodecanoic acid], the melting point was 130 to 131 °C.
`Cc1c(Cl)c(O)c(CCCCCCCCCC(=O)OC(C)C)c(O)c1C=O` [215-13-COO^IPr, Isopropyl 10-(3-chloro-2,6-dihydroxy-5-formyl-4-methylphenyl)decanate] registered a melting point of 49 °C.
The compound `Cc1c(Cl)c(O)c(CCCCCCCCCOC(=O)C(C)(C)C)c(O)c1C=O` [215-13-OPiv, 9-(3-Chloro-5-formyl-2,6-dihydroxy-4-methylphenyl)nonyl pivalate] came in with a melting point of 62 °C.
`Cc1c(Cl)c(O)c(CCCCCCCCCCCC(=O)OC(C)C)c(O)c1C=O` [215-15-COO^IPr, Isopropyl 12-(3-chloro-5-formyl-2,6-dihydroxy-4-methylphenyl)dodecanate] had a melting point of 82 to 83 °C.
In the case of `COC(C)(C)CCC/C(C)=C/Cc1c(O)c(Cl)c(C)c(C=O)c1O` [231-9-OMe, 3-Chloro-4,6-dihydroxy-5-[(E)-7-methoxy-3,7-dimethyl-2-octeny]-2-methyl benzaldehyde], at human DHOD [1], the inhibition at 0.2 µM worked out at 75% and the IC50 came out at 67 ± 7 nM. For the same compound, on human DHOD [2], the inhibition at 0.1 µM worked out at 98%.
The like results for `C/C(=C\Cc1c(O)c(Cl)c(C)c(C=O)c1O)CC/C=C(\C)COC(=O)C(C)(C)C` [234-12-OPiv, (2E,6E)-8-(3-Chloro-5-formyl-2,6-dihydroxy-4-methylphenyl)-2,6-dimethyl-2,6-octadienyl pivalate] were, in that order, 72%, 98 ± 5 nM and 102%.
`C/C(=C\CC/C(C)=C/Cc1c(O)c(Cl)c(C)c(C=O)c1O)CO` [236-9-OH, 3-Chloro-4,6-dihydroxy-5-(2E,6E)-8-hydroxy-3,7-dimethyl-2,6-octadienyl-2-methylbenzaldehyde]: the melting point fell in the range of 99 to 99.7 °C. For the same compound, on human DHOD [1], the inhibition at 0.2 µM worked out at 82% and the IC50 stood at 44 ± 5 nM. The inhibition at 0.1 µM at human DHOD [2] was determined as 103%.
For `C/C(=C\Cc1c(O)c(Cl)c(C)c(C=O)c1O)CC/C=C(\C)COC1CCCO1` (stereo not drawn) [236-12-OTHF, 3-Chloro-5-(2E,6E)-3,7-dimethyl-8-(tetrahydrofuran-2-yloxy)-2,6-octadienyl-4,6-dihydroxy-2-methylbenzaldehyde], in that order: 35 to 36 °C, 86%, 33 ± 3 nM and 97%.
With `CCCCC/C(C)=C/Cc1c(O)c(Cl)c(C)c(C=O)c1O` [264-8, (E)-3-Chloro-4,6-dihydroxy-2-methyl-5-(3-methyl-2-octenyl)benzaldehyde], on human DHOD [1], the inhibition at 0.2 µM worked out at 74% and the IC50 was 71 ± 2 nM. In addition, the inhibition at 0.1 µM on human DHOD [2] worked out at 90%.
For `C/C(=C\Cc1c(O)c(Cl)c(C)c(C=O)c1O)CCCCOC(=O)C(C)(C)C` [264-11-OPiv, (5E)-7-(3-Chloro-5-formyl-2,6-dihydroxy-4-methylphenyl)-5-methyl-5-heptenyl pivalate], in that order: 58%, 123 ± 18 nM and 94%.
On to `CCCCCC(C)CCc1c(O)c(Cl)c(C)c(C=O)c1O` (stereo not drawn) [265-8, 3-Chloro-4,6-dihydroxy-2-methyl-5-(3-methyloctyl)benzaldehyde], for which the melting point fell in the range of 65 to 67 °C.
As to `COC(CC(=O)C(C)(C)C)/C(C)=C/CC/C(C)=C/Cc1c(O)c(Cl)c(C)c(C=O)c1O` (stereo not drawn) [271-12, 3-Chloro-4,6-dihydroxy-2-methyl-5-(2E,6E)-(8-methoxy-3,7,11,11-tetramethyl-10-oxo-2,6-dodecadienyl)benzaldehyde], on human DHOD [1], the inhibition at 0.2 µM was determined as 76% and the IC50 was determined as 60 ± 21 nM. Moreover, the inhibition at 0.1 µM on human DHOD [2] is 95%.
As to `Cc1c(Cl)c(O)c(CCCCCCC(C)C)c(O)c1C=O` [279-8, 3-Chloro-4,6-dihydroxy-2-methyl-5-(7-methyloctyl)benzaldehyde], the melting point fell in the range of 93 to 94 °C.
With `C/C(=C\COC(=O)C(C)(C)C)CC/C(C)=C/Cc1c(O)c(Cl)c(C)c(C=O)c1O` [287-12-OPiv, (2E,6E)-8-(3-Chloro-5-formyl-2,6-dihydroxy-4-methylphenyl)-3,6-dimethyl-2,6-octadienyl pivalate], on human DHOD [1], the inhibition at 0.2 µM was 82% and the IC50 is 67 ± 3 nM. The inhibition at 0.1 µM at human DHOD [2] came to 104%.
On to `C/C(=C\Cc1c(O)c(Cl)c(C)c(C=O)c1O)CC/C=C(\C)C1OC(C)C(C)O1` (stereo not drawn) [509-11, 3-Chloro-5-((2E,6E)-7-(4,5-dimethyl-1,3-dioxolan-2-yl)-3-methyl-2,6-octadienyl)-4,6-dihydroxy-2-methylbenzaldehyde], for which the melting point was 35 to 36 °C.
`CC(C)=CCC/C(C)=C/Cc1c(O)c(Cl)c(C)c(C=O)c1O` [CC-B, (E)-3-Chloro-4,6-dihydroxy-5-(3,7-dimethyl-2,6-octadienyl)-2-methylbenzaldehyde]: on human DHOD [1], the inhibition at 0.2 µM was found to be 69% and the IC50 came to 1050 ± 214 nM. Also, the inhibition at 0.1 µM on human DHOD [2] came to 100%.
`COC(=O)c1c(C)cc(O)c(C/C=C(\C)CCC=C(C)C)c1O` [compound 146, Methyl (E)-3-(3,7-dimethyl-2,6-octadienyl)-2,4-dihydroxy-6-methylbenzoate] showed a melting point of 46 to 47 °C.
The same measure, in the same setting: next, `COC(=O)c1ccc(O)c(C/C=C(\C)CCC=C(C)C)c1O` [compound 161, Methyl (E)-3-(3,7-dimethyl-2,6-octadienyl)-2,4-dihydroxybenzoate]: 62 °C; `C/C(=C\Cc1c(O)c(Cl)cc(C=O)c1O)CC/C=C(\C)C1CC(=O)C(C)(C)O1` (stereo not drawn) [compound 209, 5-Chloro-2,4-dihydroxy-3-[(2E,6E)-7-(5,5-dimethyl-4-oxotetrahydrofuran-2-yl)-3,7-dimethyl-2,6-heptadienyl]benzaldehyde]: 70 to 72 °C; `CC(C)=CCC/C(C)=C/Cc1c(O)cc(C)c(C=O)c1O` [compound 216, (E)-2,4-Dihydroxy-3-(3,7-dimethyl-2,6-octadienyl)-6-methylbenzaldehyde]: 120 to 121 °C.
On the same count and under the same terms, next, `CC(C)=CCC/C(C)=C/Cc1c(O)ccc(C=O)c1O` [compound 217, (E)-2,4-Dihydroxy-3-(3,7-dimethyl-2,6-octadienyl)benzaldehyde]: 85 °C; `CC(C)=CCC/C(C)=C/Cc1c(O)c(Cl)cc(C=O)c1O` [compound 224, (E)-5-Chloro-2,4-dihydroxy-3-(3,7-dimethyl-2,6-octadienyl)benzaldehyde]: 94 to 95 °C.
In turn, `Cc1c(Cl)c(O)c(CCCCCCCC2CC(=O)C(C)(C)O2)c(O)c1C=O` (stereo not drawn) [compound 250, 5-Chloro-2,4-dihydroxy-6-methyl-3-[7-(3,3-dimethyl-4-oxo-2-oxacyclopentyl)heptyl]benzaldehyde] came in with a melting point of 70 to 71 °C.
